Measurements reported in patent publication US8637523B2, “Compounds for the reduction of beta-amyloid production” (Bristol-Myers Squibb Company, priority 2010, dated 2014).

System: Aβ42
Assay: Cellular assay for inhibition of Aβ1-42 production (H4 APP751 SWE clone 8.20)
Type: cell-based
Settings: 19 h, H4 APP751 SWE clone 8.20 cells, 19 h incubation; read-out: Activity Rating (Aβ42 cellular IC50), class symbol
Experimental: Cellular Assays for Inhibition of Aβ1-40 and Aβ1-42 Production
H4 cells stably transfected with APP751 containing the Swedish mutation (H4 APP751 SWE clone 8.20, developed at BMS) were maintained in log phase through twice weekly passage at a 1:20 split. […] Following incubation for 19 h in 5% CO2 at 37° C., plates were briefly centrifuged (1000 rpm, 5 min). A 10 μl aliquot from each well was transferred to a second assay plate (Costar 3709) for Aβ40 measurements. Antibody cocktails were freshly prepared by dilution into 40 mM Tris-HCl (pH 7.4) with 0.2% BSA and added to assay plates. For Aβ42 measurements, antibodies specific for the Aβ42 neoepitope (565, developed at BMS; conjugated to the Wallac reagent (Perkin Elmer)) and the N-terminal sequence of Aβ peptide (26D6, developed at SIBIA; conjugated to APC (Perkin Elmer)) were mixed and 20 μl of the mixture was added to each well of the incubated cell plate yielding a final concentration of 0.8 ng/well 565 and 75 ng/well 26D6. For the Aβ40 measurements, antibodies specific for the Aβ40 neoepitope (TSD, developed at BMS; conjugated to the Wallac reagent (Perkin Elmer)) and 26D6 as described above were mixed and 20 μl of the mixture was added to the 10 μl aliquots which had been removed previously from the cell plate yielding a final concentration of 1.6 ng/well TSD and 17.5 ng/well 26D6. Assay plates containing antibodies were sealed with aluminum foil and incubated overnight at 4° C. Signal was determined using a Viewlux counter (Perkin Elmer) and IC50 values determined using curve fitting in CurveMaster (Excel Fit based).

Row | IC50 [nM] | Structure (SMILES)
1 | < 10 | Cc1ncn(-c2ccc3cc2OCC(O)CCNc2nc(nc4c2CCC4c2ccc(F)cc2)N3)n1 (single isomer, unassigned) [Example 72B, 18-(4-fluorophenyl)-7-(3-methyl-1H-1,2,4-triazol-1-yl)-10,11,12,13,14,16,17,18-octahydro-15,2-(azeno)-8,4-(metheno)cyclopenta[h][1,6,10,12]oxatriazacycloheptadecin-11(3H)-ol]
2 | 10 to 100 | N#Cc1ccc2cc1OCC(O)CCNc1nc(nc3c1CCC3c1ccc(F)cc1)N2 (single isomer, unassigned) [Example 73A, 7-cyano-18-(4-fluorophenyl)-10,11,12,13,14,16,17,18-octahydro-15,2-(azeno)-8,4-(metheno)cyclopenta[h][1,6,10,12]oxatriazacycloheptadecin-11(3H)-ol]

The next lines start with the compound.

Row | Structure (SMILES) | IC50 [nM]
3 | Cc1ncn(-c2ccc3cc2OCCCCNc2nc(nc4c2CN(C)CC4c2ccc(F)cc2)N3)n1 (racemic) [Example 70B, 19-(4-fluorophenyl)-17-methyl-7-(3-methyl-1H-1,2,4-triazol-1-yl)-11,12,13,14,16,17,18,19-octahydro-10H-15,2-(azeno)-8,4-(metheno)pyrido[3,4-h][1,6,10,12]oxatriazacycloheptadecine] | < 10
4 | CN1Cc2c3nc(nc2C(c2ccc(F)cc2)C1)Nc1ccc(C#N)c(c1)OCCCCN3 (racemic) [Example 71, 7-cyano-19-(4-fluorophenyl)-17-methyl-11, 12, 13,14,16,17,18,19-octahydro-10H-15,2-(azeno)-8,4-(metheno)pyrido[3,4-h][1,6,10,12]oxatriazacycloheptadecine] | 10 to 100
5 | CN1Cc2c(nc3nc2N(C)C/C=C\COc2cc(ccc2C#N)N3)C(c2ccc(F)cc2)C1 (racemic) [Example 74, (11Z)-14,17-dimethyl-7-cyano-19-(4-fluorophenyl)-13,14,16,17,18,19-hexahydro-10H-15,2-(azeno)-8,4-(metheno)pyrido[3,4-h][1,6,10,12]oxatriazacycloheptadecine] | 10 to 100
6 | Cc1ncn(-c2ccc3cc2OCCNCCNc2nc(nc4c2CCC4c2ccc(F)cc2)N3)n1 (single isomer, unassigned) [Example 55B, 19-(4-fluorophenyl)-7-(3-methyl-1H-1,2,4-triazol-1-yl)-11,12,13,14,15,17,18,19-octahydro-10H-16,2-(azeno)-8,4-(metheno)cyclopenta[i][1,4,7,11,13]oxatetraazacyclooctadecine] | 10 to 100

Same assay, conditions: H4 APP751 SWE clone 8.20 cells, 19 h incubation; read-out: Activity Rating (Aβ42 cellular IC50), class symbol

Row | IC50 [nM] | Structure (SMILES)
7 | < 10 | Cc1ncn(-c2ccc3cc2OCC(O)CCNc2nc(nc4c2CCC4c2ccc(F)cc2)N3)n1 (single isomer, unassigned) [Example 72A, 18-(4-fluorophenyl)-7-(3-methyl-1H-1,2,4-triazol-1-yl)-10,11,12,13,14,16,17,18-octahydro-15,2-(azeno)-8,4-(metheno)cyclopenta[h][1,6,10,12]oxatriazacycloheptadecin-11(3H)-ol]
8 | < 10 | Cc1ncn(-c2ccc3cc2OCC(O)CCNc2nc(nc4c2CCC4c2ccc(F)cc2)N3)n1 (single isomer, unassigned) [Example 72C, 18-(4-fluorophenyl)-7-(3-methyl-1H-1,2,4-triazol-1-yl)-10,11,12,13,14,16,17,18-octahydro-15,2-(azeno)-8,4-(metheno)cyclopenta[h][1,6,10,12]oxatriazacycloheptadecin-11(3H)-ol]
9 | < 10 | Cc1ncn(-c2ccc3cc2OCC(O)CCNc2nc(nc4c2CCC4c2ccc(F)cc2)N3)n1 (single isomer, unassigned) [Example 72D, 18-(4-fluorophenyl)-7-(3-methyl-1H-1,2,4-triazol-1-yl)-10,11,12,13,14,16,17,18-octahydro-15,2-(azeno)-8,4-(metheno)cyclopenta[h][1,6,10,12]oxatriazacycloheptadecin-11(3H)-ol]
10 | 10 to 100 | N#Cc1ccc2cc1OCC(O)CCNc1nc(nc3c1CCC3c1ccc(F)cc1)N2 (single isomer, unassigned) [Example 73C, 7-cyano-18-(4-fluorophenyl)-10,11,12,13,14,16,17,18-octahydro-15,2-(azeno)-8,4-(metheno)cyclopenta[h][1,6,10,12]oxatriazacycloheptadecin-11(3H)-ol]

Second part, the compound before the results:

Row | Structure (SMILES) | IC50 [nM]
11 | Cc1ncn(-c2ccc3cc2OCCCCNc2nc(nc4c2CN(C)CC4c2ccc(F)cc2)N3)n1 (racemic) [Example 70A, 19-(4-fluorophenyl)-17-methyl-7-(3-methyl-1H-1,2,4-triazol-1-yl)-11,12,13,14,16,17,18,19-octahydro-10H-15,2-(azeno)-8,4-(metheno)pyrido[3,4-h][1,6,10,12]oxatriazacycloheptadecine] | 10 to 100
12 | Clc1cn(-c2ccc3cc2OC/C=C\CCc2nc(nc4c2CCC4c2ccccc2)N3)cn1 (single isomer, unassigned) [Example 16A, (11Z)-7-(4-chloro-1H-imidazol-1-yl)-18-phenyl-10,13,14,16,17,18-hexahydro-15,2-(azeno)-8,4-(metheno)cyclopenta[h][1,10,12]oxadiazacycloheptadecine] | < 10
13 | Clc1cn(-c2ccc3cc2OC/C=C\CCc2nc(nc4c2CCC4c2ccccc2)N3)cn1 (single isomer, unassigned) [Example 16B, (11Z)-7-(4-chloro-1H-imidazol-1-yl)-18-phenyl-10,13,14,16,17,18-hexahydro-15,2-(azeno)-8,4-(metheno)cyclopenta[h][1,10,12]oxadiazacycloheptadecine] | 10 to 100
14 | N#Cc1ccc2cc1OCCNCCNc1nc(nc3c1CCC3c1ccc(F)cc1)N2 (single isomer, unassigned) [Example 26A, 7-cyano-19-(4-fluorophenyl)-11,12,13,14,15,17,18,19-octahydro-10H-16,2-(azeno)-8,4-(metheno)cyclopenta[i][1,4,7,11,13]oxatetraazacyclooctadecine] | 10 to 100
15 | N#Cc1ccc2cc1OCCNCCNc1nc(nc3c1CCC3c1ccc(F)cc1)N2 (single isomer, unassigned) [Example 26B, 7-cyano-19-(4-fluorophenyl)-11,12,13,14,15,17,18,19-octahydro-10H-16,2-(azeno)-8,4-(metheno)cyclopenta[i][1,4,7,11,13]oxatetraazacyclooctadecine] | 100 to 1000
16 | CN1CCNc2nc(nc3c2CCC3c2ccc(F)cc2)Nc2ccc(C#N)c(c2)OCC1 (single isomer, unassigned) [Example 27A, 7-cyano-19-(4-fluorophenyl)-12-methyl-11,12,13,14,15,17,18,19-octahydro-10H-16,2-(azeno)-8,4-(metheno)cyclopenta[i][1,4,7,11,13]oxatetraazacyclooctadecine] | 10 to 100
17 | CN1CCNc2nc(nc3c2CCC3c2ccc(F)cc2)Nc2ccc(C#N)c(c2)OCC1 (single isomer, unassigned) [Example 27B, 7-cyano-19-(4-fluorophenyl)-12-methyl-11,12,13,14,15,17,18,19-octahydro-10H-16,2-(azeno)-8,4-(metheno)cyclopenta[i][1,4,7,11,13]oxatetraazacyclooctadecine] | 100 to 1000
18 | CN1CCCCOc2cc(ccc2C#N)Nc2nc3c(c1n2)CCC3c1ccc(F)cc1F (single isomer, unassigned) [Example 32A, 7-cyano-18-(2,4-difluorophenyl)-14-methyl-10,11,12,13,14,16,17,18-octahydro-15,2-(azeno)-8,4-(metheno)cyclopenta[h][1,6,10,12]oxatriazacycloheptadecine] | 10 to 100
19 | CN1CCCCOc2cc(ccc2C#N)Nc2nc3c(c1n2)CCC3c1ccc(F)cc1F (single isomer, unassigned) [Example 32B, 7-cyano-18-(2,4-difluorophenyl)-14-methyl-10,11,12,13,14,16,17,18-octahydro-15,2-(azeno)-8,4-(metheno)cyclopenta[h][1,6,10,12]oxatriazacycloheptadecine] | 100 to 1000
20 | Cc1ncn(-c2ccc3cc2OCCNCCNc2nc(nc4c2CCC4c2ccc(F)cc2)N3)n1 (single isomer, unassigned) [Example 55A, 19-(4-fluorophenyl)-7-(3-methyl-1H-1,2,4-triazol-1-yl)-11,12,13,14,15,17,18,19-octahydro-10H-16,2-(azeno)-8,4-(metheno)cyclopenta[i][1,4,7,11,13]oxatetraazacyclooctadecine] | 10 to 100

Same assay, conditions: H4 APP751 SWE clone 8.20 cells, 19 h incubation; unit inferred; read-out: Activity Rating (Aβ42 cellular IC50), numeric value

Row | IC50 [nM] | Structure (SMILES)
21 | 21 | CN1CCCCOc2cc(ccc2C#N)Nc2nc3c(c1n2)CCC3c1ccccc1 (single isomer, unassigned) [Example 34A, 7-cyano-14-methyl-18-phenyl-10,11,12,13,14,16,17,18-octahydro-15,2-(azeno)-8,4-(metheno)cyclopenta[h][1,6,10,12]oxatriazacycloheptadecine]
22 | 160 | CN1CCCCOc2cc(ccc2C#N)Nc2nc3c(c1n2)CCC3c1ccccc1 (single isomer, unassigned) [Example 34B, 7-cyano-14-methyl-18-phenyl-10,11,12,13,14,16,17,18-octahydro-15,2-(azeno)-8,4-(metheno)cyclopenta[h][1,6,10,12]oxatriazacycloheptadecine]
